The target of the experiment is T1, canine TRPM8 (Canis lupus familiaris, UniProt Q1A7N1).
T1 construct: expressed in transfected cells
As to the kind of experiment: In Vitro Canine TRPM8 Functional Assay (intracellular Ca2+ fluorescence, icilin activation, HEK293 cells). The class given is cell-based. The following applies: for IC50: HEK293 cells expressing canine TRPM8, icilin activation, individually measured values (batches/salt forms), read-out: IC50 (nM), in vitro TRP M8 Activity. An outline of the steps:
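HEK293 cells expressing canine TRPM8 loaded with Calcium 3 dye, then stimulated with icilin; intracellular Ca2+ rise read on FLIPR or FDSS. Peak fluorescence minus basal normalized to percent maximal response; IC50 from sigmoidal nonlinear regression of quadruplicate wells.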

Where [1] appears, read: HEK293, read-out: % Inh (%) @0.2 μM, in vitro TRP M8 Activity, 0.2 μM test compound, individually measured values.
Setting [2] is: HEK293, 0.2 μM test compound, individually measured values, read-out: % Inh (%) @0.2 μM, in vitro TRP M8 Activity.

Where “and” joins values, the source holds several entries; their conditions need not be identical. Equal values may be shown once. Where a name gives a salt, the structure may show the parent alone. Read-outs that look alike come from different tables or passages of the source.

Experimental findings from patent US20120202856A1, “SUBSTITUTED BENZIMDAZOLE DERIVATIVES USEFUL AS TRPM8 RECEPTOR MODULATORS” (priority 2011, published 2012) are described below.

T1 sequence (Q1A7N1 1-1104): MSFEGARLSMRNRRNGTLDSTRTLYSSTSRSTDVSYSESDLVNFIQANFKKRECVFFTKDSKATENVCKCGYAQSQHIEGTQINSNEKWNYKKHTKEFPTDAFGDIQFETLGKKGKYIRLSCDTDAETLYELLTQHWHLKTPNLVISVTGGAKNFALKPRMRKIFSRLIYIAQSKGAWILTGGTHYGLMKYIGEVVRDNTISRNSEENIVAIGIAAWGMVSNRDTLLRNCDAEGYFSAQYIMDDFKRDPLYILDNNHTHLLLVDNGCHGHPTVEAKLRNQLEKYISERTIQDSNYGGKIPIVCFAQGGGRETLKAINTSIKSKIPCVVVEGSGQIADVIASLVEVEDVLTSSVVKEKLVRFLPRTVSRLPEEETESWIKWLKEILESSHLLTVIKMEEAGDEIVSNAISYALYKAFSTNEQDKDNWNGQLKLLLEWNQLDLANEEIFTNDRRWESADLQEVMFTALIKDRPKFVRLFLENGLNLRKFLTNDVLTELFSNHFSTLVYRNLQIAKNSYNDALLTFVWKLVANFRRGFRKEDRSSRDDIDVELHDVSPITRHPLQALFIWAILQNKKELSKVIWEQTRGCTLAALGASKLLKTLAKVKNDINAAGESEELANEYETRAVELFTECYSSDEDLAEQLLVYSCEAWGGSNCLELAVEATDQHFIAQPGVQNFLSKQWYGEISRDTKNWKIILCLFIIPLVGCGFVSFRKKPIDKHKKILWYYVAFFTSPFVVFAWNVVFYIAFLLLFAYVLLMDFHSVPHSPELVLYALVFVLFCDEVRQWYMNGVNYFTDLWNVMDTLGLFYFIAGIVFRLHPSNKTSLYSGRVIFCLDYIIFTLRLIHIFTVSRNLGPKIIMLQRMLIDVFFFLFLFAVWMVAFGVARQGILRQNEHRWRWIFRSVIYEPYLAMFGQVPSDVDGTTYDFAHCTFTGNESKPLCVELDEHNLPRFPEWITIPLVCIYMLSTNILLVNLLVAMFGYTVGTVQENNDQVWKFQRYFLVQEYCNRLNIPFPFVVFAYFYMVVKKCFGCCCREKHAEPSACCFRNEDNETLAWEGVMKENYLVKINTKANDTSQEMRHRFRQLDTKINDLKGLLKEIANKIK

As usually defined, the IC50 is the concentration that inhibits the measured activity by half. For the molecule `CCc1ccccc1-c1ccc2[nH]c(-c3cc(C(C)(C)C)nn3C)nc2c1` [Compound 56, 2-(5-tert-Butyl-2-methyl-2H-pyrazol-3-yl)-5-(2-ethyl-phenyl)-1H-benzimidazole trifluoroacetic acid salt], the IC50 was found to be 10.7 nM.
For the molecule `Cc1ccccc1-c1ccc2[nH]c(-c3cc(C(C)(C)C)nn3C)nc2c1` [Compound 55, 2-(5-tert-Butyl-2-methyl-2H-pyrazol-3-yl)-5-o-tolyl-1H-benzimidazole trifluoroacetic acid salt], the IC50 came out at 5.5 nM.
As to `CC(C)(C)c1cc(-c2nc3cc(-c4ccccc4Cl)ccc3[nH]2)on1` [Compound 68, 2-(3-tert-Butyl-isoxazol-5-yl)-5-(2-chloro-phenyl)-1H-benzimidazole trifluoroacetic acid salt], the half-inhibitory concentration (IC50) was 14.8 nM and 16.3 nM.
For `CC(C)(C)c1cc(-c2nc3cc(-c4ccccc4C(F)(F)F)cc(C(F)(F)F)c3[nH]2)on1` [Compound 142, 2-(3-tert-Butyl-isoxazol-5-yl)-7-trifluoromethyl-5-(2-trifluoromethyl-phenyl)-1H-benzimidazole sodium salt], the IC50 was 3 nM and 3.3 nM. Also, the inhibition at 0.2 µM under setting [1] came to 99%.
Consider `Cn1nc(C(C)(C)C)c(C#N)c1-c1nc2cc(-c3c(F)cccc3C(F)(F)F)cc(Cl)c2[nH]1` [Compound 172, 3-tert-Butyl-5-[7-chloro-5-(2-fluoro-6-trifluoromethyl-phenyl)-1H-benzimidazol-2-yl]-1-methyl-1H-pyrazole-4-carbonitrile sodium salt], for which the IC50 turned out to be 8.7 nM. The inhibition at 0.2 µM under setting [2] is 100%.
Take `Cn1nc(C(C)(C)C)c(C#N)c1-c1nc2cc(-c3c(F)cccc3C(F)(F)F)cc(C(F)(F)F)c2[nH]1.[Na]` [Compound 152, 3-tert-Butyl-5-[5-(2-fluoro-6-trifluoromethyl-phenyl)-7-trifluoromethyl-1H-benzimidazol-2-yl]-1-methyl-1H-pyrazole-4-carbonitrile sodium salt]: the IC50 was 5.3 nM and 6.5 nM and 5 nM. Also, under “0.2 μM test compound, individually measured values, sodium salt, 0.2 µM”, the “% Inh (%) @0.2 μM, in vitro TRP M8 Activity” value is recorded as 99%. Further, under setting [1], the inhibition at 0.2 µM came out at 100%.
On to `COc1ccccc1-c1ccc2[nH]c(-c3cc(C4CC4)no3)nc2c1` [Compound 15, 2-(3-cyclopropylisoxazol-5-yl)-5-(2-methoxyphenyl)-1H-benzimidazole sodium salt], for which the IC50 is 70 nM.
Take `CC(C)(C)c1cc(-c2nc3cc(-c4c(F)cccc4C(F)(F)F)cc(C(F)(F)F)c3[nH]2)on1` [Compound 144, 2-(3-tert-Butyl-isoxazol-5-yl)-5-(2-fluoro-6-trifluoromethyl-phenyl)-7-trifluoromethyl-1H-benzimidazole hydrochloride]: the IC50 was 3.9 nM and 4 nM. For the same molecule, the inhibition at 0.2 µM under setting [2] was 99%.
Take `Cc1c(C(C)(C)C)nn(C)c1-c1nc2cc(-c3ccccc3Cl)cc(Cl)c2[nH]1` [Compound 134, 2-(5-tert-Butyl-2,4-dimethyl-2H-pyrazol-3-yl)-7-chloro-5-(2-chloro-phenyl)-1H-benzimidazole hydrochloride]: the IC50 is 5.6 nM and 10.9 nM. Further, the inhibition at 0.2 µM under setting [2] turned out to be 99%.
In the case of `FC(F)(F)Oc1ccccc1-c1ccc2[nH]c(-c3cc(C4CC4)no3)nc2c1` [Compound 17, 2-(3-cyclopropylisoxazol-5-yl)-5-(2-trifluoromethoxyphenyl)-1H-benzimidazole sodium salt], the half-inhibitory concentration (IC50) came out at 52 nM.
For the molecule `Cn1nc(C(C)(C)C)c(Cl)c1-c1nc2cc(-c3c(F)cccc3C#N)cc(C(F)(F)F)c2[nH]1` [Compound 146, 2-[2-(5-tert-Butyl-4-chloro-2-methyl-2H-pyrazol-3-yl)-7-trifluoromethyl-1H-benzimidazol-5-yl]-3-fluoro-benzonitrile hydrochloride], the IC50 was 12.2 nM and 15 nM. The inhibition at 0.2 µM under setting [2] was found to be 100%.
On to `Cn1nc2c(c1-c1nc3cc(-c4ccccc4C(F)(F)F)ccc3[nH]1)CCCC2(C)C` [Compound 30, 2,7,7-Trimethyl-3-[5-(2-trifluoromethylphenyl)-1H-benzimidazol-2-yl]-4,5,6,7-tetrahydro-2H-indazole sodium salt], for which the IC50 was 36 nM.
For the molecule `Cc1nc(C(C)(C)C)oc1-c1nc2cc(-c3ccccc3F)cc(Cl)c2[nH]1` [Compound 182, 2-(2-tert-Butyl-4-methyl-oxazol-5-yl)-7-chloro-5-(2-fluoro-phenyl)-1H-benzimidazole hydrochloride], the inhibition at 0.2 µM under setting [2] is 26%.
On to `CCCc1cc(-c2nc3ccc(-c4ccccc4C(F)(F)F)cc3[nH]2)on1` [Compound 18, 2-(3-Propylisoxazol-5-yl)-6-(2-trifluoromethylphenyl)-1H-benzimidazole hydrochloride], for which the IC50 amounted to 27 nM.
For the molecule `Cc1oc(C(C)(C)C)nc1-c1nc2cc(-c3ccccc3Cl)cc(Cl)c2[nH]1` [Compound 163, 2-(2-tert-Butyl-5-methyl-oxazol-4-yl)-7-chloro-5-(2-chloro-phenyl)-1H-benzimidazole hydrochloride], under setting [2], the inhibition at 0.2 µM was found to be 62%.
As to `Cc1c(C(C)(C)C)nn(C)c1-c1nc2cc(-c3ccccc3Cl)cc(C(F)(F)F)c2[nH]1` [Compound 121, 2-(5-tert-Butyl-2,4-dimethyl-2H-pyrazol-3-yl)-5-(2-chloro-phenyl)-7-trifluoromethyl-1H-benzimidazole hydrochloride], the IC50 worked out at 3.1 nM.
Consider `CC(C)(C)c1cc(-c2nc3cc(-c4c(F)cccc4F)cc(C(F)(F)F)c3[nH]2)on1` [Compound 140, 2-(3-tert-Butyl-isoxazol-5-yl)-5-(2,6-difluoro-phenyl)-7-trifluoromethyl-1H-benzimidazole sodium salt], for which the IC50 is 4.5 nM and 7.4 nM. Under setting [1], the inhibition at 0.2 µM is 100%.
Take `CCn1nc(C(C)(C)C)cc1-c1nc2cc(-c3ccccc3OC(F)(F)F)ccc2[nH]1` [Compound 45, 2-(5-tert-butyl-2-ethyl-2H-pyrazol-3-yl)-5-(2-trifluoromethoxyphenyl)-1H-benzimidazole sodium salt]: the IC50 worked out at 51.2 nM.
Still for that read-out and setting: in the case of `Cc1c(C(C)(C)C)nn(C)c1-c1nc2cc(-c3ccccc3F)cc(C(F)(F)F)c2[nH]1` [Compound 118, 2-(5-tert-Butyl-2,4-dimethyl-2H-pyrazol-3-yl)-5-(2-fluoro-phenyl)-7-trifluoromethyl-1H-benzimidazole hydrochloride] it was 9.6 nM.
As to `Cc1oc(C(C)(C)C)cc1-c1nc2cc(-c3ccccc3F)ccc2[nH]1` [Compound 174, 2-(5-tert-Butyl-2-methyl-furan-3-yl)-5-(2-fluoro-phenyl)-1H-benzimidazole sodium salt], the IC50 was determined as 33.4 nM. Under setting [2], the inhibition at 0.2 µM is 83%.
For `Cc1c(C(C)(C)C)nn(C)c1-c1nc2cc(-c3c(F)cccc3F)cc(C(F)(F)F)c2[nH]1` [Compound 122, 2-(5-tert-Butyl-2,4-dimethyl-2H-pyrazol-3-yl)-5-(2,6-difluoro-phenyl)-7-trifluoromethyl-1H-benzimidazole hydrochloride], the IC50 is 5.5 nM.
Regarding `Cc1nc(C(C)(C)C)oc1-c1nc2cc(-c3ccccc3C(F)(F)F)cc(C(F)(F)F)c2[nH]1` [Compound 177, 2-(2-tert-Butyl-4-methyl-oxazol-5-yl)-7-trifluoromethyl-5-(2-trifluoromethyl-phenyl)-1H-benzimidazole hydrochloride], under setting [2], the inhibition at 0.2 µM came to 11%.
Consider `CC(C)(C)c1cc(-c2nc3cc(-c4ccccc4C(F)(F)F)ccc3[nH]2)n(Cc2ccccc2)n1` [Compound 48, 2-(5-tert-Butyl-2-benzyl-2H-pyrazol-3-yl)-5-(2-trifluoromethylphenyl)-1H-benzimidazole sodium salt], for which the IC50 was found to be 18.4 nM.
As for `COc1ccccc1-c1ccc2[nH]c(-c3cc(C(C)(C)C)no3)nc2c1` [Compound 8, 2-(3-tert-Butylisoxazol-5-yl)-5-(2-methoxyphenyl)-1H-benzimidazole sodium salt], the IC50 was 11.1 nM and 8 nM.
Turning to `FC(F)(F)c1ccccc1-c1ccc2[nH]c(-c3cc(C4CCCC4)no3)nc2c1` [Compound 92, 2-(3-Cyclopentylisoxazol-5-yl)-5-(2-trifluoromethylphenyl)-1H-benzimidazole], the IC50 is 24.5 nM.
Still for that read-out and setting: with `Cn1nc(C(C)(C)C)c(Cl)c1-c1nc2cc(-c3ccccc3OC(F)(F)F)ccc2[nH]1` [Compound 51, 2-(5-tert-Butyl-4-chloro-2-methyl-2H-pyrazol-3-yl)-5-(2-trifluoromethoxyphenyl)-1H-benzimidazole sodium salt] the figure was 27 nM.
As for `Cn1nc(C(C)(C)C)c(C#N)c1-c1nc2cc(-c3c(F)cccc3OC(F)(F)F)cc(Cl)c2[nH]1` [Compound 173, 3-tert-Butyl-5-[7-chloro-5-(2-fluoro-6-trifluoromethoxy-phenyl)-1H-benzimidazol-2-yl]-1-methyl-1H-pyrazole-4-carbonitrile sodium salt], the IC50 was 10.7 nM. Also, the inhibition at 0.2 µM under setting [2] came out at 100%.
For `Cn1nc(C(C)(C)C)c(Cl)c1-c1nc2cc(-c3c(C(F)(F)F)cccc3C(F)(F)F)ccc2[nH]1` [Compound 87, 5-(2,6-Bis-trifluoromethyl-phenyl)-2-(5-tert-butyl-4-chloro-2-methyl-2H-pyrazol-3-yl)-1H-benzimidazole hydrochloride], the IC50 is 5.7 nM and 8.6 nM.
Regarding `Cc1oc(C(C)(C)C)c(C#N)c1-c1nc2cc(-c3ccccc3C(F)(F)F)cc(C(F)(F)F)c2[nH]1` [Compound 184, 2-tert-Butyl-5-methyl-4-[7-trifluoromethyl-5-(2-trifluoromethyl-phenyl)-1H-benzimidazol-2-yl]-furan-3-carbonitrile sodium salt], the IC50 was found to be 6.4 nM. Besides, the inhibition at 0.2 µM under setting [2] turned out to be 101%.
